# According to patent US20080021105A1, “Medicine Capable of Inhibiting Activation of Transcription Factor Klf5” (THE UNIVERSITY OF TOKYO, priority 2004, published 2008):
# Assays:
# KLF5 = conditions: reporter assay using cells; Nature Medicine, 8, pp.856-863, 2002; cited from earlier work
# [1] = test system: neointimal formation in injured blood vessels; conditions: administered to wild type mice; Nature Medicine, 8, pp.856-863, 2002; cited from earlier work
# [2] = target: T1, transcription factor KLF5 (PDGF-A promoter activation under overexpression of RARα) (Homo sapiens, UniProt Q13887); assay: Luciferase assay of KLF5-dependent PDGF-A promoter activation, COS1 cells cotransfected with KLF5 and RARα; type: cell-based
# T1 construct: expressed in transfected cells; host or cells: COS1 cells
# Description: COS1 cells were seeded on a 24-well plate at a ratio of 5×10^4 cells/well and cultured at 37° C. in a 5% CO2 incubator for 12 hours. Transfection was performed by using TransFast (registered trade name, Promega) transfection reagent according to the protocol attached to the reagent. Specifically, the cells were added with pCAG/KLF5 or empty vector thereof (pCAG), pCMX/RARα or empty vector thereof (pCMX) and PDGF-A promoter (−900)-Luciferase and cultured at 37° C. in a 5% CO2 incubator for 48 hours. NIK-333 was dissolved in dimethyl sulfoxide (DMSO), and added at 10^−7 to 10^−5 M. Then, a luciferase assay was performed by using Dual Luciferase Reporter Assay System (Promega). In contrast to the transfection of the empty vector for KLF5 and the empty vector for RARα (Lane 1), the transfection of the KLF5 gene alone (Lane 2) and transfection of the RARα gene alone (Lane 3), the transfection of the KLF5 and RARα genes (Lane 4) activated the PDGF-A promoter. This KLF5-dependent PDGF-A promoter activation action under overexpression of RARα was inhibited by NIK-333 (Lanes 5 to 7).
# (§1) COS1 cells were seeded on a 24-well plate at a rate of 5×10^4 cells/well and cultured overnight at 37° C. in a 5% CO2 incubator. Transfection was performed by using TransFast (registered trade name, Promega) transfection reagent according to the protocol attached to the reagent. Specifically, the cells were added with pCAG/KLF5 or empty vector thereof (pCAG), pRSh/RARα, pRSh/RARβ, pRSh/RARγ or empty vector thereof (pRS-RSV) and PDGF-A promoter (−900)-Luciferase and cultured at 37° C. in a 5% CO2 incubator for 48 hours. NIK-333 was dissolved in dimethyl sulfoxide (DMSO); and added at 10^−12 to 10^−5 M. Then, a luciferase assay was performed by using Dual Luciferase Reporter Assay System (Promega). […] This KLF5-dependent PDGF-A promoter activation under overexpression of RARα was inhibited by NIK-333 (Lanes 5 to 12). […] On the other hand, it was noted that the KLF5-dependent PDGF-A promoter activation action under overexpression of RARβ was not affected by NIK-333.
# [3] = target: T2, transcription factor KLF5 (PDGF-A promoter activation under overexpression of RARγ) (Homo sapiens, UniProt Q13887); assay: Luciferase assay of KLF5-dependent PDGF-A promoter activation, COS1 cells cotransfected with KLF5 and RARγ; type: cell-based; conditions: Example 1-2
# T2 construct: expressed in transfected cells; host or cells: COS1 cells
# Description: as §1
# [4] = target: T3, transcription factor KLF5 (PDGF-A promoter activation under overexpression of RARβ) (Homo sapiens, UniProt Q13887); assay: Luciferase assay of KLF5-dependent PDGF-A promoter activation, COS1 cells cotransfected with KLF5 and RARβ; type: cell-based; conditions: Example 1-2, FIG. 3
# T3 construct: expressed in transfected cells; host or cells: COS1 cells
# Description: as §1
# [5] = test system: Fibroblast-derived 3T3 cells; assay: Cell growth of fibroblast 3T3 (living cell count); type: cell-based
# Description: Fibroblast-derived 3T3 cells were seeded on a 24-well plate at a rate of 1×10^6 cells/well and left for 12 hours. Then, NIK-333 and ATRA were added at 10^−7 to 10^−4 M, and living cells were counted 24, 36 and 48 hours later. NIK-333 and ATRA were dissolved in DMSO.
# [6] = test system: vascular intimal hyperplasia resulted from vascular injury due to the cuff; assay: Mouse cuff-induced injury model, Example 3-1 (HE staining); type: in vivo, C57BL6/N mice; conditions: for I/M ratio: HE staining, 5 weeks after cuff
# Description: Vascular remodeling analysis was performed by using a cuff-induced injury model. Usefulness of this model in relation to vascular remodeling has been reported (Physiol. Genomics, 2, pp.13-30, 2000; Circulation, 104, pp.2716-2721, 2001; Circulation, 106, pp.847-853, 2002). For this experiment, 8-week old male C57BL6/N mice (10 animals/group) were used. In an amount of 50 mg/kg of NIK-333 dissolved in soybean oil was orally given once a day and every day from 7 days before placement of a cuff (placement of polyethylene tube around blood vessel) to the day before sacrifice. The control group received soybean oil alone in the same manner. After the 7-day pretreatment, the right femoral artery was covered with PE50 (polyethylene tube 50) as a cuff. The animals were sacrificed after 5 weeks. Blood was collected, and the cuff was removed under perfusion fixation via puncture of the left ventricle. For pathological evaluation, hematoxylin/eosin (HE) staining was performed. As a result, the ratio of I/M (intima/media) in vascular intimal hyperplasia resulted from vascular injury due to the cuff decreased in the NIK-333 treatment group compared with the control group.
# [7] = test system: vascular intimal hyperplasia resulted from vascular injury due to the cuff; assay: Mouse cuff-induced injury model, Example 3-2 (EVG staining); type: in vivo, C57BL6/N mice; conditions: for I/M ratio (mean ± S.D.): EVG staining, 5 weeks after cuff; for ratio of I/M (intima/media) compared with the control group: Example 3-2
# Description: Vascular remodeling analysis was performed by using a cuff-induced injury model. Usefulness of this model in relation to vascular remodeling has been reported (Physiol. Genomics, 2, pp.13-30, 2000; Circulation, 104, pp.2716-2721; Circulation, 106, pp.847-853, 2002). For this experiment, 8-week old male C57BL6/N mice (10 animals/group) were used. In an amount of 100 or 200 mg/kg of NIK-333 or 5 or 10 mg/kg of ATRA suspended in soybean oil was orally given once daily every day from 7 days before placement of a cuff (placement of polyethylene tube around blood vessel) to the day before sacrifice. The control group were received soybean oil alone in the same manner. After the 7-day pretreatment, the right femoral artery was covered with PE50 (polyethylene tube 50, outer diameter: 0.965 mm, length: about 1.5 mm) as a cuff. The animals were sacrificed after 5 weeks. Blood was collected, and the cuff was removed under perfusion fixation via puncture of the left ventricle. For pathological evaluation, Elastica van Gieson (EVG) staining was performed. As a result, the ratio of I/M (intima/media) in vascular intimal hyperplasia resulted from vascular injury due to the cuff decreased in the NIK-333 treatment groups compared with the control group.
# [8] = Influence on mouse testes weight and body weight; type: in vivo, C57BL6/N mice
# Description: Eight-week old male C57BL6/N mice (10 animals/group) were used. In an amount of 50 mg/kg or 100 mg/kg of NIK-333 dissolved in soybean oil was orally given once daily every day for 5 weeks. The control group received soybean oil alone in the same manner. Body weights were measured after 5 weeks. The animals were sacrificed, then the testes were observed by visual observation, and the testes weights were measured.
# 3T3-KLF5 cells = assay: Growth of cells with stable KLF5 (living cell count); type: cell-based; conditions: for living cell count: 10^−8 to 10^−5 M, 24 hours, serum-free, FIG. 5
# Description: (§2) “3T3-KLF5 cells”, cells in which KLF5 was stably expressed (obtained by subcloning cDNA of KLF5 in a 3×FLAG expression vector to prepare a construct of 3×FLAG-KLF5, then transfecting 3T3 cells with the construct, and culturing the transfectants in the presence of G418 for 2 weeks to clone G418 resistant cells, control cells not containing KLF5 which were prepared in the same manner are referred to as 3T3-mock cells), were seeded in DMEM medium containing 10% FBS and penicillin G/streptomycin at a rate of 1×10^5 cells/well (6-well plate) and cultured overnight at 37° C. in a 5% CO2 incubator, and then the medium was changed to DMEM medium containing penicillin G/streptomycin (serum-free). The cells were added with NIK-333 dissolved in DMSO after 2 hours, cultured for 24 hours, and then counted.
# 3T3-mock cells = assay: Growth of control cells not containing KLF5 (living cell count); type: cell-based; conditions: for living cell count: 10^−8 to 10^−5 M, 24 hours, serum-free, FIG. 5
# Description: as §2
# [9] = clinical; N. Eng. J. Med., 334, pp.1561-1567, 1996; cited from earlier work
# hepatoma recurrence = conditions: clinical; long-term administration over one year; N. Eng. J. Med., 334, pp.1561-1567, 1996; cited from earlier work
# [10] = 50 mg/kg orally once daily for 5 weeks
# [11] = 100 mg/kg orally once daily for 5 weeks
# T1 sequence (P10276 whole entry partner): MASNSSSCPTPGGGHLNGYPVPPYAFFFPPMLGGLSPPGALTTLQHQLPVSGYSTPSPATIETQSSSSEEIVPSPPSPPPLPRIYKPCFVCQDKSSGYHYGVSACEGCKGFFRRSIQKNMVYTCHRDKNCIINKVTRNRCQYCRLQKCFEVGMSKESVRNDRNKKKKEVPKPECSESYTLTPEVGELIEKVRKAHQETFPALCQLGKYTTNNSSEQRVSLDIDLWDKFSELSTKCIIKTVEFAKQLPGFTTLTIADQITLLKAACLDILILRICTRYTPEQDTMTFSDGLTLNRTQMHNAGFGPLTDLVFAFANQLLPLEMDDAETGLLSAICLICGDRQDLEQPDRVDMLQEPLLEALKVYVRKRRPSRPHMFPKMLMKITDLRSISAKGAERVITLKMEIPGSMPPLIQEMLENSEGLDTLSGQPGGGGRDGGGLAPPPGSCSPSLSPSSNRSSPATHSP
# T1 sequence (Q13887 whole entry): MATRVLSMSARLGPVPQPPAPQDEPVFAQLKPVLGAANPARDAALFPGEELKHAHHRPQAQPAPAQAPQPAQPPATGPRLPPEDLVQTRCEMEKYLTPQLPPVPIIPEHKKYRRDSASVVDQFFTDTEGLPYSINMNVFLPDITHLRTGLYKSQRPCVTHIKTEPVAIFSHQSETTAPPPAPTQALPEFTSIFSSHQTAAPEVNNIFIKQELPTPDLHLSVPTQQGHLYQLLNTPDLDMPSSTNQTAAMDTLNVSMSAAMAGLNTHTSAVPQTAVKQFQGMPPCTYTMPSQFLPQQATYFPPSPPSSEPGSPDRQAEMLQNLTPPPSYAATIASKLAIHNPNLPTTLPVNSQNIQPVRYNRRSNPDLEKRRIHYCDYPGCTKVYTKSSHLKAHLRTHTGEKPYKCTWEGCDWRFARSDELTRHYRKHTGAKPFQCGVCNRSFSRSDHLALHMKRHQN
# T2 sequence (P13631 whole entry partner): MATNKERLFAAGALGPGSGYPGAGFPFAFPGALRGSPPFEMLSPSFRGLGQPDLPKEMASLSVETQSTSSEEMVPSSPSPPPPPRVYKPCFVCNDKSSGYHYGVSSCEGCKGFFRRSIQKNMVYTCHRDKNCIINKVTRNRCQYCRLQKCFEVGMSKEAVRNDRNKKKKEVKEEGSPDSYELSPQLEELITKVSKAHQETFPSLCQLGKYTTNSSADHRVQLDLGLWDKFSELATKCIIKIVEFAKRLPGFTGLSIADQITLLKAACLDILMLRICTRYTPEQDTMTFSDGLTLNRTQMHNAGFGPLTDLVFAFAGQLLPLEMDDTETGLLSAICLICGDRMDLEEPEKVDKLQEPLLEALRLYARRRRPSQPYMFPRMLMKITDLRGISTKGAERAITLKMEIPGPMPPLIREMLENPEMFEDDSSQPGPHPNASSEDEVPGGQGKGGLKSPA
# T2 sequence (Q13887 whole entry): as the sequence (Q13887 whole entry) above
# T3 sequence (Q13887 whole entry): as above
structure (smiles),measurement,setting,value
CC1(C)CCC(C)(C)c2cc(NC(=O)c3ccc(C(=O)O)cc3)ccc21 [Am80],transcription of PDGF-A induced by KLF5,KLF5,inhibited
same,neointimal formation in injured blood vessels,[1],inhibited
"CC(C)=CCC/C(C)=C/CC/C(C)=C/C=C/C(C)=C/C(=O)O [NIK-333, (2E,4E,6E, 10E)-3,7,11,15-Tetramethyl-2,4,6,10,14-hexadecapentanoic acid]",KLF5-dependent PDGF-A promoter activation action under overexpression of RARα,"[2]; Example 1-1, COS1 cells, 10^−7 to 10^−5 M, FIG. 1",inhibited
same,concentration from which the action showed concentration dependency,"[2]; Example 1-1, COS1 cells, RARα",≥ 10^−7 M
same,KLF5-dependent PDGF-A promoter activation under overexpression of RARα,"[2]; Example 1-2, COS1 cells, 10^−12 to 10^−5 M, FIG. 2",inhibited
same,concentration from which the inhibitory action was significantly concentration-dependent,"[2]; Example 1-2, COS1 cells, RARα",≥ 10^−10 M
same,inhibitory action compared with ATRA,"[2]; Example 1-2, RARα",more potent than that of all-trans-retinoic acid (ATRA)
same,KLF5-dependent activation of the PDGF-A promoter under overexpression of RARγ,"[3]; COS1 cells, FIG. 3",inhibited
same,inhibitory action compared with ATRA,[3]; RARγ,more potent than that of ATRA
same,KLF5-dependent PDGF-A promoter activation action under overexpression of RARβ,[4],not affected
same,concentration from which cell growth was inhibited in a concentration dependent manner,[5]; 3T3 cells,≥ 10^−7 M
same,cell growth inhibitory action compared with ATRA,"[5]; 3T3 cells, FIG. 4",more potent than that of ATRA
same,cell growth of 3T3 cells (living cell count),"[5]; 10^−7 to 10^−4 M, 24, 36 and 48 hours, FIG. 4",inhibited cell growth in a concentration dependent manner
same,I/M ratio,[6]; 50 mg/kg orally once a day,0.87 ± 0.29
same,I/M ratio,[6]; 100 mg/kg,0.75 ± 0.31
same,ratio of I/M (intima/media) compared with the control group,"[6]; NIK-333 treatment group, Example 3-1",decreased
same,I/M ratio (mean ± S.D.),[7]; 100 mg/kg orally once daily,0.38 ± 0.2
same,I/M ratio (mean ± S.D.),[7]; 200 mg/kg orally once daily,0.09 ± 0.1
same,ratio of I/M (intima/media) compared with the control group,[7]; NIK-333 100 or 200 mg/kg,decreased
same,Body weight,[8]; [10],20.8 ± 0.3 g
same,Weight of both testes,[8]; [10],0.1465 ± 0.0043 g
same,Body weight,[8]; [11],21.2 ± 0.3 g
same,Weight of both testes,[8]; [11],0.1360 ± 0.0026 g
same,body weight compared with the control group,"[8]; 50 or 100 mg/kg, 5 weeks",no difference was observed
same,testes weight compared with the control group,"[8]; 50 or 100 mg/kg, 5 weeks",no difference was observed
same,visual observation of the testes,"[8]; 50 or 100 mg/kg, 5 weeks",no abnormal finding was observed
same,action on living cell count compared with ATRA,3T3-KLF5 cells; 3T3-KLF5 cells,more potent than that of ATRA
same,living cell count,3T3-KLF5 cells; 3T3-KLF5 cells,decrease of the living cell count was observed in a concentration-dependent manner
same,survival rate of 3T3-KLF5 cells versus 3T3-mock cells,3T3-KLF5 cells; after the addition of NIK-333,the survival rate of the 3T3-KLF5 cells was higher than that of the 3T3-mock cells
same,action on living cell count compared with ATRA,3T3-mock cells,more potent than that of ATRA
same,living cell count,3T3-mock cells,decrease of the living cell count was observed in a concentration-dependent manner
same,liver function failure and adverse side effects observed with other retinoids,[9],does not substantially induce
same,recurrence of hepatoma after radical treatment,hepatoma recurrence,significantly inhibited
"CC1=C(/C=C/C(C)=C/C=C/C(C)=C/C(=O)O)C(C)(C)CCC1 [ATRA, all-trans-retinoic acid, reference compound]",I/M ratio (mean ± S.D.),[7]; 5 mg/kg orally once daily,0.64 ± 0.3
same,I/M ratio (mean ± S.D.),[7]; 10 mg/kg orally once daily,0.63 ± 0.2
same,ratio of I/M (intima/media) compared with the control group,[7]; ATRA 5 or 10 mg/kg,no difference was observed
same,living cell count,3T3-KLF5 cells; 3T3-KLF5 cells,decrease of the living cell count was observed in a concentration-dependent manner
same,living cell count,3T3-mock cells,decrease of the living cell count was observed in a concentration-dependent manner
